What was measured:
[1] = test system: 394 cell lines that do not depend on KRAS; assay: In vitro cell line screening, 2D monolayers (CellTiter-Glo), KRAS-independent panel; assay type: cell-based, human; conditions: Non-KRAS panel, sensitive = maximum inhibition greater than 50% relative to DMSO, max 3 μM Compound 1, 1 μM Compound 9, 120-hour incubation
Method: (§1) Cells from human cancer cells lines (from commercial sources such as ATCC or ECCAC) were grown as 2D monolayers by seeding onto flat-bottom 96-well tissue culture plates (Corning). Cells were allowed to recover for 16-24 hours prior to compound treatment. Compounds or dimethyl sulfoxide (DMSO) were added at various combinations of compound concentrations in a final DMSO concentration of up to 0.5% (v/v). Following a total of 120-hour incubation, CellTiter-Glo reagent(registered trademark) (Promega) was added. Plates were incubated for 10 minutes with gentle shaking at room temperature to lyse the cells, then incubated for further 10 minutes at room temperature to stabilize luminescence signal. After mixing, the mixture was transferred to a fresh plate, and luminescence was determined on EnVision plate reader (Perkin Elmer).
(§2) For both 3D and 2D assays, the combination was tested as matrix of various concentrations of Compound 1 and Compound 9. The maximum concentrations of Compound 1 and Compound 9 used were 3 μM and 1 μM, respectively. Signals were normalized to that of the average of the DMSO control wells. […] For each cell line, the maximum % inhibition values were obtained for Compound 1 alone, Compound 9 alone and the combination of both compounds. The degree of drug interaction (i.e. synergy, additivity or antagonism) was quantified for each cell line by the Bliss independence model using the Synergyfinder R package (Ref: He L. et al. (2018) Methods for High-throughput Drug Combination Screening and Synergy Scoring. In: von Stechow L. (eds) Cancer Systems Biology. Methods in Molecular Biology, vol 1711. Humana Press, New York, N.Y.). For each cell line, a single score metric, the sum of synergy and antagonism across screened drug concentrations (SUM_SYN_ANT) (Ref: Di Veroli G. Y. et al (2016) Bioinformatics 32(18):2866-2868), was calculated. Synergy was defined as a score of 21 or above.

[2] = test system: human colorectal cancer cell line SW837; assay: Antitumor effect on SW837 tumor subcutaneously implanted to SCID-Beige mouse; assay type: in vivo; conditions: Compound 1 alone, 25 mg/kg/day orally once a day for 28 days; day of assessment
Method: The day at which the grouping was carried out was defined as Day 0.

[3] = test system: 97 cell lines harboring driver mutations in KRAS; assay: In vitro cell line screening, 3D cultures (CellTiter-Glo 3D), KRAS panel; assay type: cell-based, human; conditions: sensitive = maximum inhibition greater than 50% relative to DMSO, max 3 μM Compound 1, 1 μM Compound 9, 120-hour incubation
Method: The effect of Compound 1 in combination with an ERK inhibitor, Compound 9, on 97 cell lines harboring driver mutations in KRAS (G12A, G12C, G12F, G12R, G12S, G12V, G13C, G13D, A59G, Q61H, Q61K, Q61L or A146T) was assessed using the following technique. Cells from human cancer cells lines (from commercial sources such as ATCC or ECCAC) were grown as 3D cultures by seeding cells into round-bottom ultra-low attachment 96-well tissue culture plates (Corning) followed by centrifugation. Cells were allowed to recover for 16-24 hours prior to compound treatment. Compounds or dimethyl sulfoxide (DMSO) were added at various combinations of compound concentrations in a final DMSO concentration of up to 0.5% (v/v). Following a total of 120-hour incubation, CellTiter-Glo 3D Reagent(registered trademark) (Promega) was added. Plates were incubated for 10 minutes with gentle shaking at room temperature to lyse the cells, then incubated for further 40 minutes at room temperature to stabilize luminescence signal. After mixing, the mixture was transferred to a fresh plate and luminescence was determined on EnVision plate reader (Perkin Elmer).
as §2

[4] = test system: 491 cell lines; assay: In vitro cell line screening, both panels overall; assay type: cell-based, human; conditions: Total panel, sensitive = maximum inhibition greater than 50% relative to DMSO, max 3 μM Compound 1, 1 μM Compound 9, 120-hour incubation
Method: as §1, with “as 3D cultures” for “as 2D monolayers”, “seeding cells into round-bottom ultra-low attachment” for “seeding onto flat-bottom”, “plates (Corning) followed by centrifugation.” for “plates (Corning).”, “CellTiter-Glo 3D Reagent(registered” for “CellTiter-Glo reagent(registered”, “further 40” for “further 10”, “fresh plate” for “fresh plate,”
as §1, §2

Question: Which “Number of cell lines sensitive” value [1] does the source give for Cn1nc2ccc(-c3c[nH]c4nc(N5[C@H]6CC[C@@H]5[C@H](N)C6)n(C)c(=O)c34)c(Cl)c2c1Cl [Compound 1, 2-((1R,2R,4S)-2-amino-7-azabicyclo[2.2.1]heptan-7-yl)-5-(3,4-dichloro-2-methyl-2H-indazol-5-yl)-3-methyl-3,7-dihydro-4H-pyrrolo[2,3-d]pyrimidin-4-one] here?
Answer: 137

Question: What about the “Number of cell lines sensitive (% of total)” value (“Number … (% of total)” for short) [1] of the same molecule?
Answer: (34.8) %

Question: What about the “T/C (%)” value [2] of the same molecule?
Answer: 65.0%

Question: What about the “Number of cell lines sensitive” value [3] of the same molecule?
Answer: 38

Question: And the “Number … (% of total)” value [3]?
Answer: (39.2) %

Question: And the “Number of cell lines sensitive” value [4]?
Answer: 175

Question: What about the “Number … (% of total)” value [4] of the same molecule?
Answer: (35.6) %
